Tested on: healthy volunteers
Assay: Phase 1 safety and tolerability, single ascending dose (SAD) cohorts
Type: in vivo, human
Conditions: n = 6
Protocol: Parts A and B of this phase 1, randomized, double-blind, placebo-controlled SAD and MAD oral dose study with JNT-517 were conducted in healthy volunteers. The primary objective for these studies was to assess the safety and tolerability of single and multiple doses of JNT-517 in healthy participants. The secondary objective for these studies was to assess the PK of single and multiple oral doses of JNT-517.
Eligible participants included males and females 18 to 55 years of age, medically healthy with no clinically notable medical history, a BMI of 18–40 kg/m^2 and total body weight > 50 kg (110 lbs), and who have been nonsmokers for at least 2 weeks prior to and throughout dosing.
In total, 40 participants who were healthy adult were randomized to receive JNT-517 (10–170 mg) or placebo (3:1 ratio) in 5 cohorts of 8 participants as SADs. […] Within each SAD cohort, a sentinel group of 2 participants were initially randomized to receive JNT-517 or placebo in a 1:1 ratio. Once safety was confirmed for these 2 sentinel participants over a 48-hour observation period, the remaining 6 participants in the same cohort were randomized 5:1 to receive JNT-517 or placebo. Both JNT-517 and placebo were administered as an on-site compounded suspension.
In both SAD and MAD studies, safety and tolerability were assessed by AE monitoring, clinical laboratory tests (blood chemistries, hematology, coagulation, serology, and urinalysis), vital signs, 12-lead electrocardiograms, and physical examinations. Safety assessment and corresponding samples were collected on day-1 prior to dosing and days 1, 2, 3, and 8 for the SAD study or throughout the 14 days of dosing and day 21 for the MAD study.

NC(=O)N1CCC[C@@H](N(C(=O)NCc2ccc(OC(F)(F)F)cc2F)C2CC2)C1 [JNT-517]
0 Number (%): AEs leading to IP discontinuation (SAD 10 mg) | Any CTCAE Grade ≥ 3 (SAD 10 mg) | Death (SAD 10 mg) | SAE (SAD 10 mg) | TEAE Alanine aminotransferase increased (SAD 10 mg) | TEAE Aspartate aminotransferase increased (SAD 10 mg) | TEAE Blood creatine phosphokinase increased (SAD 10 mg) | TEAE Hematuria (SAD 10 mg) | TEAE Pyrexia (SAD 10 mg) | TEAE Syncope (SAD 10 mg) | TEAE Upper respiratory tract infection (SAD 10 mg) | TEAE Urinary tract infection (SAD 10 mg) | AEs leading to IP discontinuation (SAD 25 mg) | Death (SAD 25 mg) | SAE (SAD 25 mg) | TEAE Catheter site pain (SAD 25 mg) | TEAE Dizziness (SAD 25 mg) | TEAE Headache (SAD 25 mg) | TEAE Nausea (SAD 25 mg) | TEAE Pyrexia (SAD 25 mg) | TEAE Syncope (SAD 25 mg) | TEAE Upper respiratory tract infection (SAD 25 mg) | TEAE Urinary tract infection (SAD 25 mg) | AEs leading to IP discontinuation (SAD 50 mg) | Death (SAD 50 mg) | SAE (SAD 50 mg) | TEAE Alanine aminotransferase increased (SAD 50 mg) | TEAE Aspartate aminotransferase increased (SAD 50 mg) | TEAE Blood creatine phosphokinase increased (SAD 50 mg) | TEAE Catheter site pain (SAD 50 mg) | TEAE Dizziness (SAD 50 mg) | TEAE Hematuria (SAD 50 mg) | TEAE Nausea (SAD 50 mg) | TEAE Pyrexia (SAD 50 mg) | TEAE Urinary tract infection (SAD 50 mg) | AEs leading to IP discontinuation (SAD 100 mg) | Any CTCAE Grade ≥ 3 (SAD 100 mg) | Any TEAE (SAD 100 mg) | Death (SAD 100 mg) | SAE (SAD 100 mg) | TEAE Alanine aminotransferase increased (SAD 100 mg) | TEAE Aspartate aminotransferase increased (SAD 100 mg) | TEAE Blood creatine phosphokinase increased (SAD 100 mg) | TEAE Catheter site pain (SAD 100 mg) | TEAE Dizziness (SAD 100 mg) | TEAE Headache (SAD 100 mg) | TEAE Hematuria (SAD 100 mg) | TEAE Nausea (SAD 100 mg) | TEAE Pyrexia (SAD 100 mg) | TEAE Syncope (SAD 100 mg) | TEAE Upper respiratory tract infection (SAD 100 mg) | TEAE Urinary tract infection (SAD 100 mg) | AEs leading to IP discontinuation (SAD 170 mg) | Any CTCAE Grade ≥ 3 (SAD 170 mg) | Death (SAD 170 mg) | SAE (SAD 170 mg) | TEAE Alanine aminotransferase increased (SAD 170 mg) | TEAE Aspartate aminotransferase increased (SAD 170 mg) | TEAE Blood creatine phosphokinase increased (SAD 170 mg) | TEAE Catheter site pain (SAD 170 mg) | TEAE Dizziness (SAD 170 mg)
1 (16.7) Number (%): TEAE Catheter site pain (SAD 10 mg) | TEAE Dizziness (SAD 10 mg) | TEAE Headache (SAD 10 mg) | TEAE Nausea (SAD 10 mg) | Any CTCAE Grade ≥ 3 (SAD 25 mg) | TEAE Alanine aminotransferase increased (SAD 25 mg) | TEAE Aspartate aminotransferase increased (SAD 25 mg) | TEAE Blood creatine phosphokinase increased (SAD 25 mg) | TEAE Hematuria (SAD 25 mg) | Any CTCAE Grade ≥ 3 (SAD 50 mg) | TEAE Headache (SAD 50 mg) | TEAE Syncope (SAD 50 mg) | TEAE Upper respiratory tract infection (SAD 50 mg) | Any TEAE (SAD 170 mg)
2 (33.3) Number (%): Any TEAE (SAD 10 mg) | Any TEAE (SAD 25 mg) | Any TEAE (SAD 50 mg)

Reference: paper PMC11601558, “SLC6A19 inhibition facilitates urinary neutral amino acid excretion and lowers plasma phenylalanine” (JCI Insight, 2024)
